Consider one compound from patent publication US11980620B2, “Compounds and methods for treatment of Diamond Blackfan anemia” (THE CHILDREN'S MEDICAL CENTER CORPORATION, priority 2017, dated 2024).

Assay [1] concerns control iPSCs. Put plainly: Erythroid differentiation (CD71+GlyA+) of CD34-5F cells from control iPSCs. Format: cell-based, human. The procedure:
(FIG. 8A) The distribution of 1440 compounds by Z-score in a proliferation-based screen of the Sigma LOPAC chemical library. DBA CD34-5F cells were plated in erythroid-promoting conditions in 384-well format. Erythroid proliferation was measured in the presence of 5 μM of each compound, and converted into Z-scores. The screen was carried out with 3 RPS19 DBA and 2 normal iPSC lines. (FIG. 88) Dose-dependent effect of SMER28 (in μM) on erythroid differentiation, shown as the absolute number of erythroid cells in each drug-treated condition normalized to vehicle (DMSO) control. Erythroid cells were analyzed on day 9 of differentiation using markers CD71 and GlyA. […] (FIG. 8C) Absolute number of erythroid cells (analyzed on day 9) in each drug-treated condition normalized to vehicle (DMSO) control (4 independent experiments). […]
(FIG. 12A) Erythroid differentiation of control and DBA CD34-5F cells treated with DMSO vehicle or SMER28 (10 μM) during the initial CD34^+ progenitor phase (day 0-4 of differentiation), or stage I of erythroid culture (day 4-9 of differentiation). Percent of erythroid cells after stage I of differentiation is indicated in top left for each condition, and quantitated in (FIG. 12B). […] GFP^+ RPS19^sh and GFP^− control cells were quantitated separately. […] Arrows indicate enucleated RBCs, which are quantitated by flow cytometry. […]

In assay [2] the test system is erythroid cells from CB CD34+. Put plainly: Enucleation efficiency of GLYA+ cells at end of stage III. The class given is cell-based, human. The conditions noted are these: treatment during stages I-III; vehicle 2.4%±1.2. The procedure: (FIG. 12A) Erythroid differentiation of control and DBA CD34-5F cells treated with DMSO vehicle or SMER28 (10 μM) during the initial CD34^+ progenitor phase (day 0-4 of differentiation), or stage I of erythroid culture (day 4-9 of differentiation). Percent of erythroid cells after stage I of differentiation is indicated in top left for each condition, and quantitated in (FIG. 12B). Data are shown as mean f s.e.m. of 4 independent experiments, with 2 control and 4 DBA iPSCs. (FIG. 12C) Same as (FIG. 12A) for CB CD34+ cells transduced with shRPS19 hairpins. GFP^+ RPS19^sh and GFP^− control cells were quantitated separately. […] (FIG. 12D) RBC pellets at the end of stage III initiated with equal numbers of CD34-5F or CB progenitors. SMER28 was added at […]. (FIG. 12E) May-Grunwald-Giemsa stain of erythroid cells from CB CD34^+ at end of stage III. Arrows indicate enucleated RBCs, which are quantitated by flow cytometry. (FIG. 12F) Quantitation of the enucleation efficiency (left) of GLYA^+ cells. Data in FIGS. 12E-12F represents 3 independent experiments. For all panels, *p<0.05, **p<0.01.
Erythroblasts proliferate rapidly to give rise to terminally differentiated RBCs. […]

pEC50: −log10 of the molar value.

`C=CCNc1ncnc2ccc(Br)cc12` [SMER28, 6-Bromo-N-2-propenyl-4-quinazolinam]: the “effect on number of erythroid cells normalized to vehicle” value in assay [1] was 2.5 fold. The negative logarithm of the EC50 (pEC50) in assay [1] (Homo sapiens, iPSC, read-out: EC50, number of erythroid cells) is 5.80. In addition, the efficiency of enucleation in assay [2] is listed as 5.6%±1.6.
